From patent US6476076B1 (priority 1999, dated 2002)

Tests used:
[1] = system: PBQ-induced writhing in ICR mice; assay: animal or person; type: in vivo, mouse
[2] = system: rat eye (eye-wiping response); conditions: in vivo
[3] = system: TPA-induced ear edema in ICR mice; conditions: mouse, in vivo
[4] = system: DRG neurons; assay: cells; type: cell-based; conditions: Rattus norvegicus, DRG neuron, 10 min, read-out: 45Ca Influx EC50
[5] = system: acetic acid-induced writhing in ICR mice; assay: animal or person; type: in vivo, mouse; conditions: Mus musculus, ip, read-out: Writhing Test ED50

Row | SMILES | ED50 ([1]; Mus musculus, ip, read-out: Writhing Test ED50) | Relative Potency (Writhing Test) ([1]; mouse, in vivo) | MPP: moderate pain-producing potency [2] | RPP: relative pain-producing potency [2] | Ear Edema Assay ID50 [3] | Relative Potency (Ear Edema Assay) [3] | antiinflammatory activity in the TPA ear edema assay (in words) [3] | EC50 [4] | ED50 [5]
1 | COc1cc(CC(=O)NCCCc2ccc(C)c(C)c2)ccc1OCCN [DA-5018, 2-[4-(2-aminoethoxy)-3-methoxyphenyl]-N-[3-(3,4-dimethylphenyl)propyl]acetamide, reference compound] | 0.003 mg/kg | 100 | 0.003% | 10 | 200 μg/ear | 0.015 | weak topical activity | 0.234 µM | 0.00227 mg/kg
2 | COc1cc(CNC(=S)NCC(COC(=O)C(C)(C)C)Cc2ccc(C)c(C)c2)ccc1OC(=O)CCC(=O)O (stereo not shown) [23a, Succinic Acid Mono-(4-{3-[3-(3,4-dimethyl-phenyl)-2-(2,2-dimethyl-propionyloxymethyl)-propyl]-thioureidomethyl}-2-methoxy-phenyl) Ester] |  |  |  |  |  |  |  | 7.04 ± 1.3 µM | 0.0531 mg/kg
3 | COc1cc(CNC(=S)NCC(COC(=O)C(C)(C)C)Cc2ccc(C(C)(C)C)cc2)ccc1OC(=O)CCC(=O)O (stereo not shown) [23b, Succinic Acid Mono-(4-{3-[3-(4-t-butyl-phenyl)-2-(2,2-dimethylpropionyloxymethyl)-propyl]-thioureidomethyl}-2-methoxy-phenyl) Ester] |  |  |  |  |  |  |  | 7 ± 1.2 µM | 0.06 mg/kg
